Data taken from patent publication US12668587B2, “Benzimidazolone GLP-1 receptor agonist and use thereof” (HANGZHOU ZHONGMEIHUADONG PHARMACEUTICAL CO., LTD., priority 2020, dated 2026).
Read-outs that look alike come from different tables or passages of the source.

Target: Human GLP-1R (Homo sapiens, UniProt P43220)
Assay: GLP-1R agonist activity, HTRF cAMP detection in 293A GFP-GLP-1R cells
Design: Emax: dose or concentration left out as unconfirmed
Settings: for Emax: 293A
[1] = cAMP level, 293A GFP-GLP-1R cells, 30 min incubation, geometric mean

Human GLP-1R, sequence (P43220 24-463): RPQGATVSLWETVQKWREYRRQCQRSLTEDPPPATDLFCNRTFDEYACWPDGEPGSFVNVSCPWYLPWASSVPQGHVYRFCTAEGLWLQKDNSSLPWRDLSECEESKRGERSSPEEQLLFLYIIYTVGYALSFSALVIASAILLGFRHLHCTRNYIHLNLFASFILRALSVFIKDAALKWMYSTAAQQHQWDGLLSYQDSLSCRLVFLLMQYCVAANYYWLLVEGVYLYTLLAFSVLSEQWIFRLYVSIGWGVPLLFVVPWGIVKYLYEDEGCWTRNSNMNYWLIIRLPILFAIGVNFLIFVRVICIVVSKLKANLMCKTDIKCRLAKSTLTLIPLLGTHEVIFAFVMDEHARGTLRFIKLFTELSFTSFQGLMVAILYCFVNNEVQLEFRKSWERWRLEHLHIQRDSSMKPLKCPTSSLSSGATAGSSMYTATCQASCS
Experimental: GLP-1R-mediated agonist activity was determined by cell-based assays using a homogeneous time-resolved fluorescence (i.e., HTRF)-based cAMP detection kit, which measures the level of cAMP in cells. The method was a competitive immunoassay. It enabled direct pharmacological characterization of compounds acting on Gs-coupled receptors in adherent or suspending cells.
The standard curve of native cAMP or unlabeled cAMP produced by cells competed with d2-labeled cAMP red receptors to bind monoclonal anti-cAMP Eu3+ cryptate donors, and the specific signal was inversely proportional to the concentration of cAMP in standard or tested samples.
Human GLP-1R encoding sequence (NCBI reference sequence NP_002053.3) was subcloned into pEGFP-N1 (tsingke), and the cell line stably expressing the receptor was isolated. The expression density of GLP-1R was confirmed by the expression of GFP observed under a fluorescence microscope.
Cells were collected from a T25 tissue culture flask and centrifuged at room temperature at 1000 rpm for 5 minutes. The cell precipitates were then re-suspended in 1 mL of the stimulating buffer. 20 μL sample of cell suspension was counted on a counter STAR IC 1000 to determine the cell viability and the cell count per mL. The remaining cell suspension was then regulated with the stimulating buffer to deliver 2000 living cells per well using a multi-channel pipette. 5 μL of the cell suspension was added to each well of the plate which already contained the compound. The plate was sealed and incubated at 37° C. with 5% CO2 for 30 minutes.
After 30 minutes of incubation, 5 μL of d2-labeled cAMP and 5 μL of anti-cAMP cryptate (both 1: 20 diluted in the cell lysis buffer) were added to each well of the plate. The plate was then incubated at room temperature for 60 minutes, and the changes of HTRF signal were read with Tecan Spark reader: absorbance values at 340 nm (excitation)/at 615 nm and 665 nm (emission). Raw data were converted into nM cAMP by interpolation from the cAMP standard curve, and the effect in percentage was determined relative to the saturated concentration of the complete agonist GLP-17˜37 (400 nM) contained in each plate. Determination of EC50 was performed based on the agonist dose-response curve, which was analyzed using a four-parameter logical dose-response equation with a curve fitting program.
The test data presented the results in the form of a geometric mean (EC50s) based on the number of repetition times.

Structure (SMILES) | EC50 [nM] | Emax [%] | EC50 [1] [nM]
COc1cc(COc2cccc(C3=CCN(Cc4nc5ccc(C(=O)O)cc5n4C[C@@H]4CCO4)CC3)n2)ccc1C(C)=O [Compound 23, (S)-2-((6-((4-acetyl-3-methoxybenzyl)oxy)-3′,6′-dihydro-[2,4′-bipyridin]-1′(2′H)-yl)methyl)-1-(oxetan-2-ylmethyl)-1H-benzo[d]imidazole-6-carboxylic acid] | 16.1 | 108 | 
Cc1cc(C(=O)C2CC2)ccc1COc1cccc(C2CCN(Cc3nc4ccc(C(=O)O)nc4n3C[C@@H]3CCO3)CC2)n1 [Compound 40, (S)-2-((4-(6-((4-(cyclopropanecarbonyl)-2-methylbenzyl)oxy)pyridin-2-yl)piperidin-1-yl)methyl)-3-(oxetan-2-ylmethyl)-3H-imidazo[4,5-b]pyridine-5-carboxylic acid] | 0.07 | 94.7 | 
CCn1cnc(Cn2c(CN3CCC(c4cccc(OCc5ccc(C(=O)C6CC6)cc5F)n4)CC3)nc3ccc(C(=O)O)cc32)c1 [Compound 35, 2-((4-(6-((4-(cyclopropanecarbonyl)-2-fluorobenzyl)oxy)pyridin-2-yl)piperidin-1-yl)methyl)-1-((1-ethyl-1H-imidazol-4-yl)methyl)-1H-benzo[d]imidazole-6-carboxylic acid] | 32 |  | 
O=C(O)c1ccc2nc(CN3CCC(c4cccc(OCc5ccc(C(=O)C6CCOCC6)cc5F)n4)CC3)n(C[C@@H]3CCO3)c2c1 [Compound 19, (S)-2-((4-(6-((2-fluoro-4-(tetrahydro-2H-pyran-4-carbonyl)benzyl)oxy)pyridin-2-yl)piperidin-1-yl)methyl)-1-(oxetan-2-ylmethyl)-1H-benzo[d]imidazole-6-carboxylic acid] |  | 129 | 145
COc1cc(C(=O)C(C)C)ccc1COc1cccc(C2CCN(Cc3nc4ccc(C(=O)O)cc4n3C[C@@H]3CCO3)CC2)n1 [Compound 32, (S)-2-((4-(6-((4-isobutyryl-2-methoxybenzyl)oxy)pyridin-2-yl)piperidin-1-yl)methyl)-1-(oxetan-2-ylmethyl)-1H-benzo[d]imidazole-6-carboxylic acid] | 416 | 102 | 
CC(=O)c1ccc(COc2cccc(C3CCN(Cc4nc5ccc(C(=O)O)nc5n4C[C@@H]4CCO4)CC3)n2)c(F)c1 [Compound 5, (S)-2-((4-(6-((4-acetyl-2-fluorobenzyl)oxy)pyridin-2-yl)piperidin-1-yl)methyl)-3-(oxetan-2-ylmethyl)-3H-imidazo[4,5-b]pyridine-5-carboxylic acid] | 0.54 | 81.3 | 
CP(C)(=O)c1ccc(COc2cccc(C3CCN(Cc4nc5ccc(C(=O)O)cc5n4C[C@@H]4CCO4)CC3)n2)c(F)c1 [Compound 6, (S)-2-((4-(6-((4-(dimethylphosphoryl)-2-fluorobenzyl)oxy)pyridin-2-yl)piperidin-1-yl)methyl)-1-(oxetan-2-ylmethyl)-1H-benzo[d]imidazole-6-carboxylic acid] | > 1000 | 7.07 | 
CC(=O)c1cc(F)c(COc2cccc(C3CCN(Cc4nc5ccc(C(=O)O)cc5n4C[C@@H]4CCO4)CC3)n2)c(F)c1 [Compound 13, (S)-2-((4-(6-((4-acetyl-2,6-difluorobenzyl)oxy)pyridin-2-yl)piperidin-1-yl)methyl)-1-(oxetan-2-ylmethyl)-1H-benzo[d]imidazole-6-carboxylic acid] | 40 | 88.5 | 
CS(=O)(=O)c1ccc(COc2cccc(C3CCN(Cc4nc5ccc(C(=O)O)cc5n4C[C@@H]4CCO4)CC3)n2)c(F)c1 [Compound 2, (S)-2-((4-(6-((2-fluoro-4-(methylsulfonyl)benzyl)oxy)pyridin-2-yl)piperidin-1-yl)methyl)-1-(oxetan-2-methyl)-1H-benzo[d]imidazole-6-carboxylic acid] | > 1000 | 29.8 | 
O=C(O)c1ccc2nc(Cc3ccc(-c4cccc(OCc5ccc(C(=O)C6CC6)cc5F)n4)cc3F)n(C[C@@H]3CCO3)c2c1 [Compound 46] | 0.02 |  | 
O=C(O)c1ccc2nc(Cc3ccc(-c4cccc(OCc5ccc(C(=O)C6CC6)cc5F)n4)cc3F)n(CC3(CF)CC3)c2c1 [Compound 48] | 0.065 |  | 

Now from value to compound:

EC50 [nM] | Emax [%] | EC50 [1] [nM] | Structure (SMILES)
 |  | 1.4 | CC(C)C(=O)c1ccc(COc2cccc(C3CCN(Cc4nc5ccc(C(=O)O)cc5n4C[C@@H]4CCO4)CC3)n2)c(F)c1 [Compound 43, (S)-2-((4-(6-((2-fluoro-4-isobutyrylbenzyl)oxy)pyridin-2-yl)piperidin-1-yl)methyl)-1-(oxetan-2-ylmethyl)-1H-benzo[d]imidazole-6-carboxylic acid]
42.5 | 85.5 |  | CC(=O)c1ccc(COc2cccc(C3CCN(Cc4nc5ccc(C(=O)O)cc5n4C[C@@H]4CCO4)CC3)n2)c(C(F)(F)F)c1 [Compound 11, (S)-2-((4-(6-((4-acetyl-2-(trifluoromethyl)benzyl)oxy)pyridin-2-yl)piperidin-1-yl)methyl)-1-(oxetan-2-ylmethyl)-1H-benzo[d]imidazole-6-carboxylic acid]
> 1000 | 25.8 |  | CN(C)C(=O)c1ccc(COc2cccc(C3CCN(Cc4nc5ccc(C(=O)O)cc5n4C[C@@H]4CCO4)CC3)n2)c(F)c1 [Compound 24, (S)-2-((4-(6-((4-(dimethylcarbamoyl)-2-fluorobenzyl)oxy)pyridin-2-yl)piperidin-1-yl)methyl)-1-(oxetan-2-ylmethyl)-1H-benzo[d]imidazole-6-carboxylic acid]
705 | 109 |  | CC(=O)c1ccc(F)c(COc2cccc(C3CCN(Cc4nc5ccc(C(=O)O)cc5n4C[C@@H]4CCO4)CC3)n2)c1 [Compound 14, (S)-2-((4-(6-((5-acetyl-2-fluorobenzyl)oxy)pyridin-2-yl)piperidin-1-yl)methyl)-1-(oxetan-2-ylmethyl)-1H-benzo[d]imidazole-6-carboxylic acid]
95.3 | 91.8 |  | CC(=O)c1ccc(COc2cccc(C3CCN(Cc4nc5ccc(C(=O)O)cc5n4C[C@@H]4CCO4)CC3)n2)c(OC(F)(F)F)c1 [Compound 21, (S)-2-((4-(6-((4-acetyl-2-(trifluoromethoxy)benzyl)oxy)pyridin-2-yl)piperidin-1-yl)methyl)-1-(oxetan-2-ylmethyl)-1H-benzo[d]imidazole-6-carboxylic acid]
 | 103 | 0.75 | O=C(O)c1ccc2nc(CN3CCC(c4cccc(OCc5ccc(C(=O)C6CC6)cc5F)n4)CC3)n(C[C@@H]3CCO3)c2c1 [Compound 7, (S)-2-((4-(6-((4-(cyclopropanecarbonyl)-2-fluorobenzyl)oxy)pyridin-2-yl)piperidin-1-yl)methyl)-1-(oxetan-2-ylmethyl)-1H-benzo[d]imidazole-6-carboxylic acid]
1.67 | 125 |  | CC(=O)c1ccc(COc2cccc(C3CCN(Cc4nc5ccc(C(=O)O)cc5n4C[C@@H]4CCO4)CC3)n2)c(C)c1 [Compound 10, (S)-2-((4-(6-((4-acetyl-2-methylbenzyl)oxy)pyridin-2-yl)piperidin-1-yl)methyl)-1-(oxetan-2-ylmethyl)-1H-benzo[d]imidazole-6-carboxylic acid]
7.68 | 104 |  | CC(=O)c1cccc(COc2cccc(C3CCN(Cc4nc5ccc(C(=O)O)cc5n4C[C@@H]4CCO4)CC3)n2)c1F [Compound 17, (S)-2-((4-(6-((3-acetyl-2-fluorobenzyl)oxy)-pyridin-2-yl)piperidin-1-yl)methyl)-1-(oxetan-2-ylmethyl)-1H-benzo[d]imidazole-6-carboxylic acid]
